{
  "source": "patent US10052310B2",
  "about": "“Separase inhibitors and uses thereof” (Baylor College of Medicine, priority 2013, dated 2018)",
  "target": "T1, Separase (Homo sapiens, UniProt Q14674)",
  "T1 construct": "made in house; host or cells: 293T cells; released from IgG-Agarose by TEV protease",
  "T1 sequence (Q14674 whole entry)": "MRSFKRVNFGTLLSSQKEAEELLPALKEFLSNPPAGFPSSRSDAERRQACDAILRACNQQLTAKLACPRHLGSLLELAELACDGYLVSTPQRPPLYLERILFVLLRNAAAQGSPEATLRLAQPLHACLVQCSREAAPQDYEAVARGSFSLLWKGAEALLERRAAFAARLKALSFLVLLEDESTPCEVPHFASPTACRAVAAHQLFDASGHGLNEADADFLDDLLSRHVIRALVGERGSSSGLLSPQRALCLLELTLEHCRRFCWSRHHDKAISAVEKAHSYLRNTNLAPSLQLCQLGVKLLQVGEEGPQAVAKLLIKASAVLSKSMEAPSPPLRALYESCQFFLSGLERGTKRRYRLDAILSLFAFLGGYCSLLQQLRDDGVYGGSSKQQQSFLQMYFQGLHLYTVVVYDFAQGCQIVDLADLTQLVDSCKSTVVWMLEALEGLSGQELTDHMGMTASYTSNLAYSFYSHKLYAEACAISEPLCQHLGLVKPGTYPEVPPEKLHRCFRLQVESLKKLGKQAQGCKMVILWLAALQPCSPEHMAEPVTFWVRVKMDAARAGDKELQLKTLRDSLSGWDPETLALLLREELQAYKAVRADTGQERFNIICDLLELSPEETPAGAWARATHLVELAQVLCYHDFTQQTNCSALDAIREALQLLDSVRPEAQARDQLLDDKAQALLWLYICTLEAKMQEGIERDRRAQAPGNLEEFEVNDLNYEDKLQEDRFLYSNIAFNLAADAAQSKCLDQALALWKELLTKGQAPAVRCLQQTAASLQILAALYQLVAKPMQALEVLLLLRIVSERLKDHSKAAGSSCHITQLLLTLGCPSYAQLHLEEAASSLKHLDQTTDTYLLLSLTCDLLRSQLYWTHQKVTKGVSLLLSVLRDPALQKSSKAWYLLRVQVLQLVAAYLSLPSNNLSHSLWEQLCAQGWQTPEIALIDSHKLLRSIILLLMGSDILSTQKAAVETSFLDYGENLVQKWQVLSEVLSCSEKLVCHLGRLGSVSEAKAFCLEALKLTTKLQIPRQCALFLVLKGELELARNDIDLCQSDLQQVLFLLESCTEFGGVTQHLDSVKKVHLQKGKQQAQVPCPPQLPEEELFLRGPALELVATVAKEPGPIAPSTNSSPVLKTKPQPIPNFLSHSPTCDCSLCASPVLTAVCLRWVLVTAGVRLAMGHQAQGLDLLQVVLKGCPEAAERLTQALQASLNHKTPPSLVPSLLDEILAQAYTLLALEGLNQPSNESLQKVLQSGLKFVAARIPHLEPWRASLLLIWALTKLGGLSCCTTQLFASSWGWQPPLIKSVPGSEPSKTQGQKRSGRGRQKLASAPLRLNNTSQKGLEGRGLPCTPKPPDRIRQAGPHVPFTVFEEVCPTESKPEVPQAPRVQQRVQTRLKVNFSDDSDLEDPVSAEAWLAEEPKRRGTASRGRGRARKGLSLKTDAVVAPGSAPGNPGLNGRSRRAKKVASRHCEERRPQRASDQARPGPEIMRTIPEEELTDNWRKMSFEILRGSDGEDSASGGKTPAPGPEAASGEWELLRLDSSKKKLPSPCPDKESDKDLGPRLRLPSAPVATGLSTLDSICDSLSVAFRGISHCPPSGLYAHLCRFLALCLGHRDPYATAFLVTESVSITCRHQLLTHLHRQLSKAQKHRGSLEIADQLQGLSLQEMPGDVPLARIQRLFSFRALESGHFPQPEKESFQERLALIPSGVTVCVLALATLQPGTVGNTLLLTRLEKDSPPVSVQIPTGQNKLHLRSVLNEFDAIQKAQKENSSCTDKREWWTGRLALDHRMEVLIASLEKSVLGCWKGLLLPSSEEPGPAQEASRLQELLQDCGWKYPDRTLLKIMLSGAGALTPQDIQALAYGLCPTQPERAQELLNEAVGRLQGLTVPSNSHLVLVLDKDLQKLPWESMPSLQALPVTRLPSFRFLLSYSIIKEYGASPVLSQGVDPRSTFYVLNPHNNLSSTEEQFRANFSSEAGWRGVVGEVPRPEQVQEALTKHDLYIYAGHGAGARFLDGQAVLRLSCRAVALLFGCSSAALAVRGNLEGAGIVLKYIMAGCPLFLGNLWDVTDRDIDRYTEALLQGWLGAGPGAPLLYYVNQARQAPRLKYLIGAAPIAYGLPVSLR",
  "test": "Fluorogenic Separase activity assay using (Rad21)2-Rh110 as substrate",
  "format": "biochemical",
  "conditions": "for IC50: (Rad21)2-Rh110 substrate",
  "method": "The substrate used in this Example is (Rad21)2-Rh110, which has two Rad21 peptide molecules (Asp-Arg-Glu-Ile-Nle-Arg) conjugated to one molecule of Rhodamine 110 (Rh110) (CPC Scientific, Sunnyvale Calif.). The assay was set up using 384-well low volume black polystyrene plates (Corning, N.Y.). Fifteen micro liter of activated Separase (˜5 ng) was mixed with 5 μl of test compound. The cleavage buffer (CB) used to dilute reagents was (30 mM Hepes-KOH pH7.7, 50 mM NaCl, 25 mM NaF, 25 mM KCl, 5 mM MgCl2, 1.5 mM ATP, and 1 mM EGTA). The mixture was incubated at room temperature for 1 h, and then 5 μl of 0.2 mM substrate (Rad21)2-Rh110 was added. The positive control contained Separase, substrate and CB without the test compound. The negative control contained substrate and CB only. After the reaction mixture was incubated at 37° C. for 3 h, the relative fluorescence intensity was measured (without stopping the enzymatic activity) at λex=390 nm/λem=450 nm for […] (AMC) released from Rad21-MCA or λex=490 nm/λem=528 nm for Rh110 released from (Rad21)2-Rh110 using a Synergy™ 4 Multi-Mode Microplate Reader (BioTek Instruments Inc., Winooski, Vt.).\nDifferent amounts of Sepin-1 were mixed with activated Separase for 30 min before substrate (Rad21)2-Rh110 was added. After 3 h incubation at 37° C., the fluorescence intensity of Rh110 was determined. IC50 was calculated using either KaleidaGraph program (Synerge software, Reading, Pa.) or four parameter logistic equation (4-parameter dose-response curve fit): Inhibition of Activity (%)=min+(max−min)/{1+(log [M]/IC50)}^Hill Slop, where “min” and “max” represent minimal and maximal activity inhibition, respectively. Hill Slop is the slope of the curve at its midpoint. To identify the mode of Sepin-1 interacting with Separase, different amounts of both Sepin-1 and (Rad21)2-Rh110 were used in the Separase activity assay.",
  "note": "“Also recorded” adds a separate entry of the source. Like-named read-outs stand apart in the source and are kept apart here.",
  "data": [
    {"molecule": "CC1(C)[N+]([O-])=c2ccc([N+](=O)[O-])cc2=[N+]1[O-]", "note": "[Sepin-1, 2,2-dimethyl-5-nitro-2H-benzimidazole-1,3 dioxide]", "values": [
      {"measurement": "effect of 0.1% Tween-20 or 1% BSA on inhibition kinetics", "setting": "0.1% Tween-20 or 1% BSA in the reaction mixture", "result": "did not affect the kinetics of Sepin-1 in inhibiting Separase activity"},
      {"measurement": "IC50", "setting": "calculated using KaleidaGraph, read-out: IC50 of Separase activity inhibition", "result": 14.8, "unit": "µM"},
      {"measurement": "IC50", "setting": "four-parameter fit, n=3, read-out: estimated IC50, four-parameter dose-response curve fit", "result": 15.8, "unit": "µM"},
      {"measurement": "dose dependence of Separase activity inhibition", "setting": "FIG. 9B", "result": "dose-dependent inhibition of Separase activity"},
      {"measurement": "mode of inhibition (effect on Km and Vmax)", "setting": "Lineweaver-Burk plot, Sepin-1 mixed with Separase 30 min before substrate", "result": "did not affect the Km but reduced the Vmax; also recorded: reduced the speed (Vmax) of substrate conversion by Separase, but not the Km"},
      {"measurement": "verified activity in inhibiting Separase enzymatic activity", "setting": "re-test of HTS hits", "result": "highest activity"}
    ]}
  ]
}
